Experiment: Reaction of sweetener with the amine-containing active (gel formation)
Format: physicochemical
Procedure: It has been discovered that gellation and/or agglomeration of components particularly occurred when sucralose was added to the active ingredient (such as ondansetron). It has been determined that the particular choice of excipients combined together may be important to prevent the formation of undesirable gellation and/or agglomeration. […] It is hypothesized that the amines on the active component may form quaternary salts with the primary alkyl chlorides on the sucralose. Quaternary polymers make good hydrogels, and thus undesirably form a gel-like structure, which is problematic in the processing of film matrices to form films having a uniformity of content.

- reaction with the amine-containing active (gel formation): did not react
SMILES: OC[C@H]1O[C@@](CO)(O[C@H]2O[C@H](CO)[C@@H](O)[C@H](O)[C@H]2O)[C@@H](O)[C@@H]1O [sucrose]
